Data reported in PubChem BioAssay (NCI).
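Step 1: Grow cells in 96-well plates. Step 2: Expose to compound for 48 hours at 5 concentrations. Step 3: Interpolate endpoints linearly; if unreached, use highest concentration. GI50 is the concentration that inhibits growth by half. Definition used: TGI = concentration required for complete inhibition of growth.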 *1 amine or outer side, *2 acyl side, *3 side chain or, on linkers, in order; H or OH if unused. Where a SMILES comes first, the peptide text is derived from it. The star is where a group is joined. γGlu = O=C(O)[CH](CCC(=O)[*:2])N[*:1]; NHOH = ON*

Tests used:
Assay in all cases: NCI-60 cell line screen, 48 h
HCT-15 colon = system: HCT-15 colon
M14 melanoma = system: M14 melanoma
MDA-MB-435 = system: MDA-MB-435
OVCAR-5 ovarian = system: OVCAR-5 ovarian
OVCAR-8 ovarian = system: OVCAR-8 ovarian
SF-268 CNS = system: SF-268 CNS
SF-295 CNS = system: SF-295 CNS
SK-MEL-5 melanoma = system: SK-MEL-5 melanoma
SK-OV-3 ovarian = system: SK-OV-3 ovarian
HOP-92 NSCLC = system: HOP-92 NSCLC

SMILES	TGI (HCT-15 colon) [µM]	TGI (M14 melanoma) [µM]	TGI (MDA-MB-435) [µM]	TGI (OVCAR-5 ovarian) [µM]	TGI (OVCAR-8 ovarian) [µM]	TGI (SF-268 CNS) [µM]	TGI (SF-295 CNS) [µM]	TGI (SK-MEL-5 melanoma) [µM]	TGI (SK-OV-3 ovarian) [µM]	TGI (HOP-92 NSCLC) [µM]	GI50 (HCT-15 colon) [µM]	GI50 (HOP-92 NSCLC) [µM]	GI50 (M14 melanoma) [µM]	GI50 (MDA-MB-435) [µM]	GI50 (OVCAR-5 ovarian) [µM]	GI50 (OVCAR-8 ovarian) [µM]	GI50 (SF-268 CNS) [µM]	GI50 (SF-295 CNS) [µM]	GI50 (SK-MEL-5 melanoma) [µM]	GI50 (SK-OV-3 ovarian) [µM]
O=C(CN1CCCCC1)c1ccc2[nH]c(=O)oc2c1	> 100	> 100	> 100	> 100	> 100	> 100	> 100	> 100	> 100	–	–	–	–	–	–	–	–	–	–	–
COc1cc(/C=C2\CC3C4CC=C5C[C@@H](O)CC[C@]5(C)C4CC[C@]3(C)\C2=N\O)cc(OC)c1OC (stereo not given in full)	38.5	27.6	> 100	61.1	> 100	> 100	22	19.2	> 100	> 100	–	–	–	–	–	–	–	–	–	–
CCOC(=O)c1nc2ccccc2nc1Nc1cc(OC)c(OC)c(OC)c1	> 100	> 100	> 100	> 100	–	> 100	> 100	> 100	> 100	> 100	–	–	–	–	–	–	–	–	–	–
CCCSc1ccc2[nH]c(N3C(=O)/C(=C/c4ccc(O)c(OC)c4)N=C3c3ccccc3)cc2c1	32	35.2	> 100	44.3	> 100	> 100	–	16.1	76.3	> 100	–	–	–	–	–	–	–	–	–	–
CC(Nc1cccc(Cl)c1)c1ccncc1 (stereo not given)	> 100	> 100	> 100	> 100	> 100	> 100	> 100	> 100	> 100	> 100	–	–	–	–	–	–	–	–	–	–
O=S(=O)(O)c1cc(O)c(N=NC2S(=O)(=O)OCCOS2(=O)=O)c2ccccc12	> 100	> 100	> 100	> 100	> 100	> 100	> 100	> 100	> 100	> 100	–	–	–	–	–	–	–	–	–	–
COC(=O)C12C(=O)CC3CCC1C32C(=O)OC (stereo not given)	> 100	> 100	> 100	> 100	> 100	> 100	> 100	> 100	> 100	–	–	–	–	–	–	–	–	–	–	–
CCOC(=O)c1nc(SC)sc1NC(=O)c1ccc(OC)cc1	> 100	> 100	> 100	> 100	> 100	> 100	> 100	> 100	> 100	> 100	–	–	–	–	–	–	–	–	–	–
Cc1cccc(C)c1NC(=S)N/C=C(\C#N)C(N)=O	> 100	> 100	> 100	> 100	> 100	> 100	> 100	> 100	> 100	> 100	–	–	–	–	–	–	–	–	–	–
CC1=C[C@H](C[C@]2(C)c3c(c4c(C)cccc4oc3=O)O[C@@H]2C)OC1=O	> 100	> 100	> 100	> 100	> 100	63.4	> 100	> 100	> 100	–	–	–	–	–	–	–	–	–	–	–
Cc1cc(C)c2c(-c3ccccc3)cc(=O)[nH]c2c1	> 100	> 100	> 100	> 100	> 100	> 100	> 100	> 100	> 100	–	–	–	–	–	–	–	–	–	–	–
COC(=O)[C@H](Cc1ccccc1)NC(=O)N(CCN(CCC#N)C(=O)N[C@H](C(=O)OC)C(C)C)c1ccccc1	> 100	> 100	> 100	> 100	> 100	> 100	> 100	> 100	> 100	80.5	–	–	–	–	–	–	–	–	–	–
COc1cc2ncnc(Nc3cccc(Br)c3)c2cc1OC	22.7	20.6	49.7	25	> 35.1	> 89.6	14.3	5.67	19	36.3	–	–	–	–	–	–	–	–	–	–
CCCCCCCCCCCCCOCCOCCOCCCCC(O)CCCCCCCCCC1=C[C@H](C)OC1=O (stereo not given in full)	48	> 100	57.1	78.7	> 100	82.2	29.2	30.2	> 100	–	–	–	–	–	–	–	–	–	–	–
Cc1cccc(-c2cc(=O)c3cccnc3[nH]2)c1	> 100	> 100	0.191	> 100	53.6	> 100	> 100	52.3	> 100	> 100	–	–	–	–	–	–	–	–	–	–
O=c1[nH]c2c(C(F)(F)F)c(Cl)c(-c3ccccc3)nc2o1	> 100	> 100	> 100	58.2	> 100	> 100	> 100	> 100	64.7	75.7	–	–	–	–	–	–	–	–	–	–
CN(C)N1C(=C(C#N)C#N)C(c2ccccc2)CC1C#N (stereo not given)	> 100	> 100	> 100	> 100	> 100	> 100	> 100	> 100	> 100	> 100	–	–	–	–	–	–	–	–	–	–
CCN1CC2=C(OC(N)=C(C#N)C2c2ccc(Cl)cc2)/C(=C/c2ccc(Cl)cc2)C1 (stereo not given)	> 100	> 100	> 100	> 100	> 100	49.6	> 100	> 100	81.5	58.6	–	–	–	–	–	–	–	–	–	–
CCOC(=O)c1ccc(-c2onc(C)c2Br)[nH]1	> 100	> 100	> 100	> 100	> 100	> 100	> 100	> 100	> 100	92	–	–	–	–	–	–	–	–	–	–
O=C(Nc1ccc(Cl)cc1)c1cc(S(=O)(=O)Nc2nc3ncccc3[nH]2)c(SSc2cc(Cl)c(C(=O)Nc3ccc(Cl)cc3)cc2S(=O)(=O)Nc2nc3ncccc3[nH]2)cc1Cl	> 100	> 100	> 100	> 100	> 100	> 100	> 100	> 100	> 100	> 100	–	–	–	–	–	–	–	–	–	–
CCCCOC(=O)Nc1ccc(S(=O)(=O)Nc2c(Cl)cccc2Cl)cc1	79.5	> 100	72.6	> 100	64.6	> 100	> 100	28	75.3	75.7	–	–	–	–	–	–	–	–	–	–
COC(=O)/C(=C(/C)c1ccco1)P(=O)(OC)OC	> 100	> 100	> 100	> 100	> 100	> 100	> 100	> 100	> 100	> 100	–	–	–	–	–	–	–	–	–	–

SMILES	TGI (HCT-15 colon) [µM]	TGI (M14 melanoma) [µM]	TGI (MDA-MB-435) [µM]	TGI (OVCAR-5 ovarian) [µM]	TGI (OVCAR-8 ovarian) [µM]	TGI (SF-268 CNS) [µM]	TGI (SF-295 CNS) [µM]	TGI (SK-MEL-5 melanoma) [µM]	TGI (SK-OV-3 ovarian) [µM]	TGI (HOP-92 NSCLC) [µM]	GI50 (HCT-15 colon) [µM]	GI50 (HOP-92 NSCLC) [µM]	GI50 (M14 melanoma) [µM]	GI50 (MDA-MB-435) [µM]	GI50 (OVCAR-5 ovarian) [µM]	GI50 (OVCAR-8 ovarian) [µM]	GI50 (SF-268 CNS) [µM]	GI50 (SF-295 CNS) [µM]	GI50 (SK-MEL-5 melanoma) [µM]	GI50 (SK-OV-3 ovarian) [µM]
COc1cc(O)c2c(=O)c3cccc(C)c3[nH]c2c1	> 10	> 10	> 10	> 10	> 10	> 10	> 10	> 10	> 10	–	–	–	–	–	–	–	–	–	–	–
NC(CCC(=O)NC(CCC(=O)NO)C(=O)NCC(=O)O)C(=O)O (stereo not given) (γGlu-Glu(NHOH)-Gly-OH; configuration not given here)	> 100	> 100	> 100	> 100	> 100	> 100	> 100	> 100	> 100	> 100	–	–	–	–	–	–	–	–	–	–
CCOC(=O)CCCN	> 100	> 100	> 100	> 100	> 100	> 100	> 100	> 100	> 100	> 100	–	–	–	–	–	–	–	–	–	–
COc1ccccc1C1C(C#N)=C(N)SC(N)=C1C#N	> 100	> 100	> 100	> 100	> 100	> 100	> 100	> 100	> 100	> 100	81.3	47.1	91.6	52.8	> 100	90.4	48.9	67	90.5	> 100
COc1ccc(-c2nc(-c3nc4cc(Cl)c(Cl)cc4[nH]3)c3ccccn23)cc1	> 100	> 100	> 100	> 100	–	6.83	–	> 100	–	5.1	30.1	1.82	4.92	5.77	> 100	–	2.59	–	2.91	–
Cc1ccc(N=NC(=Nc2ccc(F)cc2)c2ccc(N(CCC#N)CCC#N)cc2)cc1	> 100	> 100	> 100	> 100	> 100	> 100	> 100	> 100	> 100	> 100	–	–	–	–	–	–	–	–	–	–
CN(C(=O)Cc1cc(Cl)c(Cl)cc1NC(=O)CCCN)[C@H]1CCCC[C@@H]1N1CCCC1	> 100	34	31.6	> 100	> 100	30.6	> 100	29.9	> 100	–	–	–	–	–	–	–	–	–	–	–
CC(=O)N1N=C(c2ccccc2)NC(=O)C1c1cc(C)c(O)c(C)c1 (stereo not given)	> 100	> 100	> 100	> 100	31.4	34.3	43.8	56.4	34.3	38.8	–	–	–	–	–	–	–	–	–	–
CC1OC1C(=O)P(=O)(O)O (stereo not given)	> 100	> 100	> 100	> 100	> 100	> 100	> 100	> 100	> 100	> 100	–	–	–	–	–	–	–	–	–	–
Cc1ccc2[nH]c3c(c2c1)C1CCC(C(C)(C)C)CC1C1C(=O)N(c2ccc(Oc4ccccc4)cc2)C(=O)C31 (stereo not given)	> 100	> 100	> 100	> 81	38.6	41.6	> 100	> 100	94.7	45.7	–	–	–	–	–	–	–	–	–	–
C[C@]12C(=O)OC[C@H](c3ccccc3)N1C(=O)N(Cc1ccccc1)[C@@H]2CO	> 100	> 100	> 100	> 100	> 100	> 100	> 100	> 100	> 100	> 100	–	–	–	–	–	–	–	–	–	–
CCN(CC)C1=Nc2ccccc2-n2ccnc2C1	> 100	> 100	> 100	> 100	> 100	> 100	> 100	> 100	–	> 100	–	–	–	–	–	–	–	–	–	–
CN1CCN(c2n[nH]c(=O)c3c2nnn3Cc2ccccc2)CC1	> 100	> 100	> 100	–	> 100	> 100	> 100	> 100	–	> 100	–	–	–	–	–	–	–	–	–	–
O=C1c2cccnc2S(=O)(=O)N1c1ccc(Br)cc1	> 100	> 100	> 100	> 100	> 100	> 100	> 100	> 100	> 100	> 100	–	–	–	–	–	–	–	–	–	–
C#CCOC(=O)C=[N+]=[N-]	> 10	> 10	> 10	> 10	> 10	> 10	> 10	–	> 10	> 10	–	–	–	–	–	–	–	–	–	–
CCCCCCc1cc2cc(C(=O)Nc3nc(C45CC6CC(CC(C6)C4)C5)cs3)c(=O)oc2cc1O	39.2	–	31.4	71.3	43.1	63	23.6	24.7	49	24.4	–	–	–	–	–	–	–	–	–	–
COc1ccc(OC)c([N+](=O)[O-])c1-c1nc2sc(Cl)cn2c1/C=N/N=C(N)N	> 100	> 100	46.3	71.7	43.1	64.8	50.2	32.3	–	31.2	–	–	–	–	–	–	–	–	–	–
COC(=O)c1sc2nc(Nc3ccccc3)c(=Nc3ccccc3)sc2c1C	> 100	–	> 100	> 100	> 100	> 100	> 100	> 100	> 100	92	–	–	–	–	–	–	–	–	–	–
CC1(N2CCOCC2)CC2C(=[N+]1[O-])CCC/C2=N/O (stereo not given)	> 100	> 100	> 100	> 100	> 100	> 100	> 100	> 100	> 100	–	–	–	–	–	–	–	–	–	–	–
C[N+](C)(N)Cc1nc(-c2ccc(Cl)cc2)no1	> 100	> 100	> 100	> 100	> 100	–	> 100	> 100	> 100	> 100	–	–	–	–	–	–	–	–	–	–
Cn1c2ccccc2n2c(=O)c(-c3ccc(Cl)cc3)nnc12	> 100	> 100	> 100	> 100	> 100	> 100	> 100	> 100	–	> 100	–	–	–	–	–	–	–	–	–	–
